“Also recorded” adds a separate entry of the source.
What was measured:
5F cells (5F HSPCs) = assay: Primary screen of Cayman epigenetic library in 5F cells, stromal-free T cell differentiation (proT readout); format: cell-based, human; settings: for CD5+ CD7+ %: 5F cells, control cells 11.60%; for CD5+ CD7+ % / Z score: e.g., at 500 nM; for Z score: calculated from the number of T progenitors after treatment, Z score greater than 3 = primary hit; for proT cells generated from 5F HSPCs after treatment with primary hits (fold change / number): first screen, FIG. 8
From the text: FIG. 6 is a schematic showing a primary screen for small molecule inhibitors of epigenetic factors that promote T cell specification, using the stromal-free T cell differentiation methods as described herein. “5F cells” refer to cells expressing 5 transcription factors (HOXA9, ERG, RORA, SOX4, and MYB). The Cayman epigenetic library contains more than 140 small molecules that are known to modulate the activity of a variety of epigenetic ‘writers and erasers’ and ‘reader’ proteins. It may include compounds that modulate the activity of methyltransferases, demethylases, histone acetyltransferases, histone deacetylases, and acetylated histone binding proteins; see e.g., caymanchem.com/product/11076/epigenetics-screening-library-(96-well).
FIG. 7 is a scatterplot showing identification of primary hits from the screen described in FIG. 6. Z scores were calculated for all the small molecules based on the number of T progenitors after treatment. Any small molecule with a Z score greater that 3 was considered as a primary hit. See e.g., Table 2.
FIG. 8 is a bar chart showing fold change of the proT cells generated from 5F HSPCs after treatment with primary hits identified in FIG. 7 (see e.g., Table 2).
(§1) A group of epigenetic regulators were tested for their ability to promote T cell differentiation. […] UNCO224 is an inhibitor of G9a/GLP, so a variety of other G9a/GLP inhibitors were tested.

[1] = system: iPSC-derived CD34+ hemogenic endothelial (HE) cells; assay: Second screen and dose response in wild type iPSC-derived CD34+ hemogenic endothelial (HE) cells, stromal-free T cell differentiation; format: cell-based, human; settings: for proT cells generated from CD34+ HE cells after treatment with G9a inhibitors at different doses: FIG. 13B-13F; for Exemplary effective dose(s): promotion of T cell differentiation from CD34+ HE cells, 13B-13F
Description: FIG. 9 is a schematic showing a second screen using wild type iPSC-derived CD34+ hemogenic endothelial (HE) cells (not 5F HSPCs, e.g., as used in […] and Table 2), to test small molecule inhibitors of epigenetic factors for promotion of T cell differentiation.
FIG. 10A-10B is a series of graphs showing the results of the screen from FIG. 9. FIG. 10A is a scatterplot of Z scores, which were calculated for all the small molecules based on the number of T progenitors after treatment. Any small molecule with a Z score greater that 3 was considered as a primary hit. FIG. 10B is a bar graph showing verification of the primary hits. Primary hits were tested in triplicate.
FIG. 12A is a schematic summarizing the experiments (see e.g., FIG. 6-11, Table 2). FIG. 12B is a bar chart showing fold change of proT cells generated from CD34^+ HE cells after treated with UNCO224 at different doses.
FIG. 13A-13F is a series of schematics and graphs showing that G9 inhibitors promote T cell differentiation using the stromal-free differentiation methods as described herein. FIG. 13A is a schematic summarizing the experiments (see e.g., FIG. 6-12, Table 2). FIGS. 13B-13E are a bar charts showing fold change of proT cells generated from CD34^+ HE cells after treatment with other G9a inhibitors at different doses.
as §1

[2] = system: class I HDAC (e.g., HDAC1, HDAC2, HDAC3); settings: cited from earlier work
MDA-MB-231 cells = settings: in MDA-MB-231 cells; cited from earlier work
[3] = molecular target: class III isoenzyme SIRT1 (Homo sapiens, UniProt Q96EB6); settings: cited from earlier work
class III isoenzyme SIRT1, sequence (Q96EB6 whole entry): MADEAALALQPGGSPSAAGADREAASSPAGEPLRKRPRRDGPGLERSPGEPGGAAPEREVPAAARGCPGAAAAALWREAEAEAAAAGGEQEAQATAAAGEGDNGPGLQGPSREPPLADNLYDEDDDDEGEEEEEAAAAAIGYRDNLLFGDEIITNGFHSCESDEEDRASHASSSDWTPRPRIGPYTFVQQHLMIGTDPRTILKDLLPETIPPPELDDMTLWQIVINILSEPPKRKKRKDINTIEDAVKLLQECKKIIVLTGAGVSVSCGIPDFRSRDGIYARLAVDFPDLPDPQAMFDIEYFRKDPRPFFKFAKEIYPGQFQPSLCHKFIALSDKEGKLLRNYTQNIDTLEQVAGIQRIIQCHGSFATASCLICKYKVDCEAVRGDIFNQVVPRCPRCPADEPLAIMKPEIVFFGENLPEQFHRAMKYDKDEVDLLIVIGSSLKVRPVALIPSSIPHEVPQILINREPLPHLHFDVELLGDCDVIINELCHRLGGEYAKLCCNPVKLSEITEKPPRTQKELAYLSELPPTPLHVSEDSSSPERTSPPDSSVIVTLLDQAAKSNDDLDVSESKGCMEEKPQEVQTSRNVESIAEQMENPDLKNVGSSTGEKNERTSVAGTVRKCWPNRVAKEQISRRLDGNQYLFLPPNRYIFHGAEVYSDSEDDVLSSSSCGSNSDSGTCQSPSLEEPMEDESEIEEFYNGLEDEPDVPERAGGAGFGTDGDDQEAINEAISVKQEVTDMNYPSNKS

HDAC = settings: pan-HDAC, with exception for HDAC6; cited from earlier work
CD34+ CD45+ HSPCs = assay: Colony-forming unit (CFU) assay of CD34+ CD45+ HSPCs; format: cell-based, human; settings: FIG. 14C
Description: (§2) FIG. 14A-14C is a series of schematics and graphs showing that UNCO224 enhances T cell commitment at expense of erythroid/myeloid potential. FIG. 14A is a schematic showing a test of whether UNCO224 specifically affects T cell differentiation. iPSC-derived CD34+ HE cells were treated with UNCO224 and differentiated into CD34+ CD45+ hematopoietic stem and progenitor cells (HSPC). These HSPCs were used to generate T cells, erythroid cells, and myeloid cells to determine their multipotency. FIG. 14B is a bar chart showing fold change of proT cells generated from CD34+ CD45+ HSPC cells after treatment with UNCO224 (500 nM). […] FIG. 14C is a bar chart showing number of different types of colonies generated from CD34+ CD45+ HSPCs in a colony-forming unit (CFU) assay. E, erythroid; M, macrophage; G, granulocyte; GM, granulocyte/macrophage; GEMM, granulocyte/erythroid/macrophage/megakaryocyte.
UNCO224 enhanced T cell commitment at expense of erythroid/myeloid potential. […] UNCO224 also promoted T cell specification rather than cell proliferation. […] Without wishing to be bound by theory, it is anticipated that H3K9 methylation mediates repression of lymphoid genes. As such, treatment with inhibitors of H3K9 methylation (see e.g., FIG. 6-16, Tables 2-3) promotes T cell differentiation, e.g., when using stromal-free T cell differentiation methods as described herein. […]

CD34+ CD45+ HSPC cells = assay: T cell differentiation of CD34+ CD45+ HSPCs after UNC0224 treatment; format: cell-based, human
Description: as §2
FIG. 15A-15C is a series of graphs showing that UNCO224 promotes T cell specification rather than cell proliferation. FIG. 14B is a bar chart showing fold change of proT cells generated from CD34+ CD45+ HSPC cells after treatment with UNCO224 (500 nM). […] FIG. 14B is a bar chart showing fold change of total cell numbers after 14 days of T cell differentiation of CD34+ CD45+ HSPCs treated with DMSO or UNCO224. […] FIG. 14C is a bar chart showing the percentage of proT cells generated from CD34+ CD45+ HSPCs treated with DMSO or UNCO224. […] N=3, **** P≤0.0001.
UNCO224 enhanced T cell commitment at expense of erythroid/myeloid potential. […] UNCO224 also promoted T cell specification rather than cell proliferation. […] Without wishing to be bound by theory, it is anticipated that H3K9 methylation mediates repression of lymphoid genes. As such, treatment with inhibitors of H3K9 methylation (see e.g., FIG. 6-16, Tables 2-3) promotes T cell differentiation, e.g., when using stromal-free T cell differentiation methods as described herein. Such H3K9 methylation inhibitors can be used in place of, or in combination with, inhibition of histone methyltransferases (e.g., EZH1 knockdown).

| Molecule | CD5+ CD7+ % (5F cells (5F HSPCs)) [%] | Z score (5F cells (5F HSPCs)) | further results |
| --- | --- | --- | --- |
| COCCCn1c(N)c(C(=O)NC2CCCC2)c2nc3ccccc3nc21 [CAY10591] | 25.9 | 8.576 | proT cells generated from 5F HSPCs after treatment with primary hits (fold change / number) (5F cells (5F HSPCs)): significantly increased; also recorded: confirmed to promote T cell specification |
| COc1cc2c(NC3CCN(C(C)C)CC3)nc(C3CCCCC3)nc2cc1OCCCN1CCCC1 [UNC0638] | – | – | proT cells generated from CD34+ HE cells after treatment with G9a inhibitors at different doses [1]: capable of promoting T cell differentiation; also recorded: significantly increased; Exemplary effective dose(s) ([1]; FIG. 12B): 8 nM |
| Cn1cc(/C=C/C(=O)c2cccc(F)c2)cc1/C=C/C(=O)NO [MC1568] | 14.0 | 5.829 | proT cells generated from 5F HSPCs after treatment with primary hits (fold change / number) (5F cells (5F HSPCs)): significantly increased; also recorded: confirmed to promote T cell specification; inhibition of class I HDAC activity [2]: Class II HDAC (e.g., HDAC4 and HDAC5) inhibitor. Displays no inhibition of class I HDAC activity (e.g., HDAC1, HDAC2, HDAC3). |
| Cc1cc(Nc2ccc(NC(=O)c3ccc(Nc4ccnc5ccccc45)cc3)cc2)nc(N)n1 [SGI-1027] | 19.9 | 0.09357 | – |
| COc1cc2c(NC3CCN(C4CCCCC4)CC3)nc(N3CCCN(C(C)C)CC3)nc2cc1OCCCN1CCCCC1 [UNC0646] | – | – | IC50 (MDA-MB-231 cells): 26 nM |
| CNCc1ccc(-c2[nH]c3cc(F)cc4c3c2CCNC4=O)cc1 [Rucaparib] | 37.2 | 0.4679 | – |
| Oxamflatin [Oxaflatin] | 12.4 | 6.54 | – |
| COc1cc2c(NC3CCN(C(C)C)CC3)nc(N3CCC(F)(F)CC3)nc2cc1OCCCN1CCCC1 [UNC0642] | – | – | proT cells generated from CD34+ HE cells after treatment with G9a inhibitors at different doses [1]: capable of promoting T cell differentiation; also recorded: significantly increased; Exemplary effective dose(s) ([1]; FIG. 12B): 40 nM |
| O=C(CCCCCN1C(=O)c2cccc3cccc(c23)C1=O)NO [Scriptaid] | 19.7 | 3.857 | – |
| COC(=O)c1ccc2c(c1)nc(NC(=O)c1ccccc1)n2CCCc1ccccc1 [BRD4770] | – | – | proT cells generated from CD34+ HE cells after treatment with G9a inhibitors at different doses [1]: capable of promoting T cell differentiation; also recorded: significantly increased; Exemplary effective dose(s) ([1]; FIG. 12B): 200 nM |
| COc1cc2nc(N3CCCN(C)CC3)nc(NC3CCN(Cc4ccccc4)CC3)c2cc1OC [BIX01294] | – | – | proT cells generated from CD34+ HE cells after treatment with G9a inhibitors at different doses [1]: capable of promoting T cell differentiation; also recorded: significantly increased; Exemplary effective dose(s) ([1]; FIG. 12B): 200 nM |
| COc1cc2c(NC3CCN(CC4CCCCC4)CC3)nc(N3CCCN(C(C)C)CC3)nc2cc1OCCCN1CCCCC1 [UNC0631] | – | – | IC50 (MDA-MB-231 cells): 25 nM |
| CCCCc1nc2cc(/C=C/C(=O)NO)ccc2n1CCN(CC)CC [SB939] | 39.4 | 5.042 | activity against SIRT1 [3]: no activity; IC50 (HDAC): 40 to 140 nM |
| CN(C)c1ccc(C(=O)NCCCCCC(=O)NO)cc1 [CAY10398] | 36.9 | 4.181 | – |
| O=C(CCCCCCC(=O)Nc1ccc(I)cc1)NO [4-iodo-SAHA] | 25.3 | 5.895 | – |
| O=C(CCCCCCC(=O)Nc1ccccc1)NO [SAHA, suberoylanilide hydroxamic acid] | 34.7 | 7.987 | – |
| O=C(CCCCCCC(=O)Nc1cccnc1)NO [Pyroxamide] | 11.6 | 3.122 | – |
| COc1cc2c(NC3CCN(C)CC3)nc(N3CCCN(C)CC3)nc2cc1OCCCN(C)C [UNC0224] | 15.0 | 3.475 | number of erythroid or myeloid lineage colonies (CD34+ CD45+ HSPCs): significant decrease; proT cells generated from CD34+ HE cells after treatment with G9a inhibitors at different doses [1]: capable of promoting T cell differentiation; fold change of proT cells generated from CD34+ HE cells at different doses ([1]; dose response, FIG. 12B): dose-dependent manner; proT cells generated from CD34+ HE cells (verification of primary hits) ([1]; second screen, primary hits tested in triplicate, FIG. 10B, listed as UNCO224): significantly increased; also recorded: significant increase; proT cells generated from 5F HSPCs after treatment with primary hits (fold change / number) (5F cells (5F HSPCs); listed as UNCO224): significantly increased; also recorded: confirmed to promote T cell specification; fold change of CD5+ CD7+ proT cells generated from CD34+ CD45+ HSPC cells (CD34+ CD45+ HSPC cells; UNC0224 500 nM vs DMSO, FIG. 14B/15A): significant increase; fold change of total cell numbers (CD34+ CD45+ HSPC cells; after 14 days of T cell differentiation, vs DMSO): significant decrease; percentage of CD5+ CD7+ proT cells (CD34+ CD45+ HSPC cells; vs DMSO, N=3): significant increase |
| CC(C)C(C(=O)Nc1ccc(C(=O)NO)cc1)c1ccccc1 (stereo not shown) [s-HDAC-42] | 43.2 | 4.263 | – |

Source: patent publication US20230073449A1, “STROMA-FREE T CELL DIFFERENTIATION FROM HUMAN PLURIPOTENT STEM CELLS” (THE CHILDREN'S MEDICAL CENTER CORPORATION, priority 2020, published 2023)
